Paper PMC12292521, “Discovery of a Potent Antimicrobial Peptide Through Rational Design: A New Frontier in Pathogen Control” (Biomolecules, 2025)
Values after ≈ are worked out from the molar mass of the structure shown. Peptide text beside a SMILES is read from it.

What was measured:
[1] = system: Monophasic Salmonella Typhimurium; type: cell-based, monophasic variant of Salmonella Typhimurium; details: Monophasic murium, 6 h
Method: (§1) To assess the antimicrobial potential of the designed peptide, different strains of Gram-negative and Gram-positive bacteria were evaluated. Pseudomonas aeruginosa was an ATCC (27853) strain, while Escherichia coli, Listeria monocytogenes, Staphylococcus aureus, Campylobacter jejuni, Salmonella Typhimurium, the monophasic variant of Salmonella Typhimurium and Salmonella Napoli were isolated from food products by the Laboratory of Microbiological Food Control—Department of Food Microbiology of the Istituto Zooprofilattico Sperimentale del Mezzogiorno (IZSM) in Portici (Naples, Italy).
(§2) In accordance with the Clinical & Laboratory Standards Institute guidelines (CLSI, 2015), the Minimum Bactericidal Concentration (MBC), defined as the minimum concentration of peptide required to kill 99.9% of the tested bacterial suspension within a defined time interval, was determined. L. monocytogenes, E. coli, S. aureus, S. Typhimurium, monophasic variant of S. Typhimurium, S. Napoli, and P. aeruginosa were cultured at 37 °C in buffered peptone water (Thermo Fisher, Milan, Italy), while C. jejuni was cultured in Bolton Broth (Oxoid, Madrid, Spain). The bacterial suspension was collected and then diluted in fresh broth to a final concentration of 1.0 × 10^3 or 1.0 × 10^5 colony-forming units (CFUs)/mL. […] Samples containing only cell suspension and DMSO were used as controls. […]

[2] = system: Aspergillus brasiliensis ATCC 16404; experiment: Quantitative suspension test, fungicidal activity, BS EN 1650:2019; type: cell-based; design: key to Fungicidal activity verdict: Active: For fungi: ACTIVE if log R ≥ 4 according to BS EN 1650:2019; Not Active: For fungi: ACTIVE if log R ≥ 4 according to BS EN 1650:2019; details: spores, 60 min, 37 °C, BSA 0.3 g/L
Excerpt: (§3) The method is based on the suspension test according to BS EN 1276:2019, which specifies a quantitative suspension analysis for the evaluation of the bactericidal activity of chemical disinfectants and antiseptics used in food, industrial, domestic, and institutional areas against a panel of microorganisms under conditions that more closely simulate practical use. Briefly, S. aureus ATCC 6538, P. aeruginosa ATCC 15442, and Staphylococcus epidermidis ATCC 12228 were used as test organisms at a bacterial concentration of 1.0 × 10^8 colony-forming units (CFU) per mL (CFU/mL). In the test, BSA (Bovine Serum Albumin) (0.3 g/L) was used as an interfering substance to mimic clean conditions. […] The reaction mixture was incubated at 37 °C for 60 min before transferring each sample to a tube containing a neutralizer solution consisting of 30 g/L polysorbate 80, 1 g/L sodium thiosulfate, 3 g/L lecithin, 1 g/L tryptone, 8.5 g/L NaCl, 100 mL/L phosphate buffer and water. The negative control (untreated cells) was prepared using PBS instead of biocides. The solutions were then plated onto Tryptone Soy Agar (TSA) and incubated at 37 °C for 48 h to determine the logarithmic CFU/mL reduction, according to the following Equation:(2) log R = log (N0) − log (Na) where R refers to the reduction in viability, N refers to the number of CFU/mL in the test mixture at the beginning of the contact time, and Na refers to the number of CFU/mL in the test mixture at the end of the contact time. […] The test method and the minimum requirements for fungicidal activity of chemical disinfectant and antiseptic products were performed according to BS EN 1650:2019. The fungicidal activity was studied using the vegetative cells of Candida albicans ATCC 10231 and the spores of Aspergillus brasiliensis ATCC 16404 as test organisms. […] The mixture was maintained at 37 °C for a contact time of 60 min. At the end of this contact time, an aliquot was taken, and the fungicidal activity was immediately neutralized with a solution consisting of 30 g/L polysorbate 80, 1 g/L sodium thiosulfate, 3 g/L lecithin, 1 g/L tryptone, 8.5 g/L NaCl, 100 mL/L phosphate buffer and water. The samples were then plated onto malt extract agar (MEA) and incubated at 30 °C for 48 h to determine the numbers of surviving fungi as the logarithmic CFU/mL reduction, calculated according to Equation (2).

[3] = system: Candida albicans ATCC 10231; experiment: as above; type: cell-based; design: key to Fungicidal activity verdict: Active: For fungi: ACTIVE if log R ≥ 4 according to BS EN 1650:2019; Not Active: For fungi: ACTIVE if log R ≥ 4 according to BS EN 1650:2019; details: vegetative cells, 60 min, 37 °C, BSA 0.3 g/L
Excerpt: as §3

Salmonella Napoli = type: cell-based; details: 6 h
Method: as §1, §2

Campylobacter jejuni = type: cell-based; details: 6 h
Method: as §1, §2

In the case of `CC[C@H](C)[C@H](NC(=O)[C@H](Cc1c[nH]c2ccccc12)NC(=O)[C@H](CCCCN)NC(=O)[C@@H](N)CCCNC(=N)N)C(=O)N[C@@H](CC(C)C)C(=O)N[C@@H](CCCCN)C(=O)N[C@@H](Cc1c[nH]c2ccccc12)C(=O)N[C@@H](CC(C)C)C(=O)N[C@@H](CCCNC(=N)N)C(=O)N[C@H](C(=O)N[C@@H](Cc1c[nH]c2ccccc12)C(=O)N[C@@H](CCCCN)C(=O)N[C@@H](CCCCN)C(N)=O)[C@@H](C)O` [RKW] (H-RKWILKWLRTWKK-NH2; N-terminus assumed), the MBC [1] is reported as 20 µM (≈ 36.8 µg/mL), the Fungicidal activity verdict ([2]; RKW 5 µM) is reported as “Na = 3.40 × 10^6 log Na = 6.53 log R = −0.28 Not Active” and the “Na (CFU/mL at the end of the contact time)” value (from here on “Na”) ([2]; RKW 5 µM) is reported as 3.40 × 10^6 CFU/mL. The Fungicidal activity verdict ([2]; RKW 10 µM) was “Na = 3.30 × 10^6 log Na = 6.52 log R = −0.29 Not Active”, the “Na” value ([2]; RKW 10 µM) was 3.30 × 10^6 CFU/mL and the Fungicidal activity verdict ([2]; RKW 20 µM) was “Na = 2.20 × 10^6 log Na = 6.34 log R = −0.09 Not Active”. For the same compound, the “Na” value ([2]; RKW 20 µM) was 2.20 × 10^6 CFU/mL, the Fungicidal activity verdict ([2]; RKW 50 µM) was “Na = 2.20 × 10^6 log Na = 6.34 log R = −0.09 Not Active” and the “Na” value ([2]; RKW 50 µM) was 2.20 × 10^6 CFU/mL. For the same compound, the Fungicidal activity verdict ([2]; RKW 100 µM) was “Na = 2.20 × 10^6 log Na = 6.34 log R = −0.09 Not Active”, the “Na” value ([2]; RKW 100 µM) was 2.20 × 10^6 CFU/mL and the Fungicidal activity verdict ([3]; RKW 5 µM) was “Na = 7.70 × 10^4 log Na = 4.89 log R = 1.71 Not Active”. The “Na” value ([3]; RKW 5 µM) was 7.70 × 10^4 CFU/mL, the Fungicidal activity verdict ([3]; RKW 10 µM) was “Na = 1.08 × 10^3 log Na = 3.03 log R = 3.57 Not Active” and the “Na” value ([3]; RKW 10 µM) was 1.08 × 10^3 CFU/mL. The Fungicidal activity verdict ([3]; RKW 20 µM) was “Na = 2.75 × 10^2 log Na = 2.44 log R = 4.16 Active”, the “Na” value ([3]; RKW 20 µM) was 2.75 × 10^2 CFU/mL and the Fungicidal activity verdict ([3]; RKW 50 µM) was “Na = 2.75 × 10^2 log Na = 2.44 log R = 4.16 Active”. The “Na” value ([3]; RKW 50 µM) was 2.75 × 10^2 CFU/mL, the Fungicidal activity verdict ([3]; RKW 100 µM) was “Na = 2.75 × 10^2 log Na = 2.44 log R = 4.16 Active” and the “Na” value ([3]; RKW 100 µM) was 2.75 × 10^2 CFU/mL. For the same compound, the MBC (Salmonella Napoli) was 20 µM (≈ 36.8 µg/mL) and the MBC (Campylobacter jejuni) was 80 µM (≈ 147 µg/mL).
